Results on four compounds are retold here after patent US9732370B2, “Method for the determination of the presence of an antibiotic in a fluid” (DSM IP ASSETS B.V., priority 2013, dated 2017).

The test system of this test is test organism of Delvotest SP-NT. Description: Microbial growth inhibition test (DSM Delvotest SP-NT, reference or modified with streptomycin in the test medium): detection limit of antibiotics in spiked milk. The format is cell-based. To be noted: for Detection limit: spiked milk, 64° C., cut-off Z-value 0; for Effect of an aminoglycoside antibiotic in the test medium on the sensitivity of the test for the antibiotic: aminoglycoside antibiotic (streptomycin) added to test medium versus reference test. As for the experimental part:
As a reference, a commercially available test system without any added aminoglycoside antibiotic (DSM Delvotest® SP-NT, plates containing 8×12 test wells) was used. In addition, two different test systems were prepared by modifying the reference test by adding the aminoglycoside antibiotic streptomycin to the test medium in a final concentration of 100 ppb or 1000 ppb. The detection limits of four different antibiotics were measured in the reference test and in the tests with modified medium containing different concentrations of streptomycin. The antibiotics that were measured were streptomycin and dihydrostreptomycin (DH-streptomycin) (both belonging to the aminoglycoside antibiotic family), penicillin G (belonging to the beta-lactam antibiotic family), and oxytetracycline (belonging to the tetracycline antibiotic family) Five different concentrations of each antibiotic (see Table 1) were measured. Hundred microliter antibiotic-free milk or hundred microliter milk spiked with the respective concentrations of antibiotic was added to the test medium (170 μl) and incubated at 64° C. in a water bath. The tests were visually determined at the point in time where a sample without antibiotic had changed colour from purple to yellow. At this point, the plates were cooled in an ice bath for 5 minutes. The cooled plates were scanned on a Delvo® scanner. The colour of each well was expressed as a Z-value; a purple colour gives rise to a positive Z-value, while a yellow colour has a negative Z-value. The Z-value of test results with samples without antibiotic is typically […]. Detailed description of the scanning technology and the expression of the colour in Z-values are described in WO 03/033728. For the determination of the detection limit for each antibiotic, a dose-response function (Z-value versus concentration of antibiotic) was constructed. The detection limit is defined as the antibiotic concentration where the S-shaped dose-response function has a Z-value equal to the cut-off value. For Delvotest® SP-NT a cut-off Z-value of 0 was used.

Where [1] appears, read: Streptomycin concentration in test 0 ppb (reference Delvotest SP-NT).
[2] abbreviates: Streptomycin concentration in test 100 ppb.
Where [3] appears, read: Streptomycin concentration in test 1000 ppb.

As to `CC1(C)S[C@@H]2[C@H](NC(=O)Cc3ccccc3)C(=O)N2[C@H]1C(=O)O` [Penicillin G, penicillin G], the “Effect of an aminoglycoside antibiotic in the test medium on the sensitivity of the test for the antibiotic” value (from here on “Effect of an aminoglycoside antibiotic”) is given as “no effect”. The same compound had a Detection limit under setting [1] of 1.04 ppb. Under setting [2], this compound had a Detection limit of 0.95 ppb. This compound also displayed a Detection limit under setting [3] of 1.07 ppb.
With `CN[C@@H]1[C@H](O[C@H]2[C@H](O[C@H]3[C@H](O)[C@@H](O)[C@H](NC(=N)N)[C@@H](O)[C@@H]3NC(=N)N)O[C@@H](C)[C@]2(O)CO)O[C@@H](CO)[C@H](O)[C@H]1O` [DH-streptomycin, dihydrostreptomycin], the “Effect of an aminoglycoside antibiotic” value is reported as “increases”. The same compound gave a Detection limit under setting [2] of 982 ppb. The compound also yielded a Detection limit under setting [3] of 445 ppb.
For the compound `CN(C)[C@@H]1C(O)=C(C(N)=O)C(=O)[C@@]2(O)C(O)=C3C(=O)c4c(O)cccc4[C@@](C)(O)[C@H]3[C@H](O)[C@@H]12` [Oxytetracycline, oxytetracycline], the “Effect of an aminoglycoside antibiotic” value is “no effect”. Moreover, the Detection limit under setting [1] was found to be 264 ppb. The compound also yielded a Detection limit under setting [2] of 239 ppb. In addition, the Detection limit under setting [3] is listed as 343 ppb.
Regarding `[H]/N=C(/N)N[C@H]1[C@H](O)[C@@H](O)[C@H](O[C@@H]2O[C@@H](C)[C@](O)(C=O)[C@H]2O[C@@H]2O[C@@H](CO)[C@H](O)[C@@H](O)[C@@H]2NC)[C@@H](N/C(N)=N\[H])[C@@H]1O` [Streptomycin, streptomycin], the “Effect of an aminoglycoside antibiotic” value is on record as “increases”. The Detection limit under setting [2] is listed as 1186 ppb. For the same compound, the Detection limit under setting [3] turned out to be 676 ppb.
